Source: patent EP0014443B1, “Dilutable alkyl-benzimidazolecarbamate formulation, process for its preparation and its use as biocide” (RIEDEL-DE HAEN AKTIENGESELLSCHAFT, priority 1979, dated 1980)
Converted amounts (≈) assume the structure as drawn. Like-named read-outs stand apart in the source and are kept apart here.

Legend:
Solubility in solvents = format: physicochemical; conditions: read-out: Löslichkeit
Description: Zum Vergleich : Die Löslichkeit von BCM beträgt in Wasser 6 ppm und in Butanol 600 ppm.

holzverblauende Pilze = experiment: Münden strip method (Mündener Streifenmethode) on wood against blue-stain fungi; conditions: in usual wood preservative formulation (alkyd resin, Testbenzin 60); 25 GT product of Beispiel 1 in 1000 GT, or 0,25 % BCM as comparison
Description: 25 GT eines Produktes gemäß Beispiel 1 werden zu 975 GT einer üblichen Holzschutzmittelformulierung gegeben, die zusammengesetzt ist aus 140 GT eines handelsüblichen Alkyldharzes, 4 GT Zinknaphthenat als Trockner, 4 GT eines handelsüblichen Hautverhütungsmittels, 30 GT Butyldiglykol und 797 GT Testbenzin 60.
Die Wirksamkeit der so biozid ausgerüsteten Holzschutzmittelformulierung gegen holzverblauende Pilze wird nach der Mündener Streifenmethode [H. Butin, Farbe und Lack, 71 (1965), 373] geprüft. Es ergibt sich eine bewuchsfreie Eindringtiefe von 3 bis 4 mm.
Zum Vergleich wird die oben angegebene übliche Holzschutzmittelformulierung mit 0,25 % Benzimidazolcarbaminsäuremethylester versetzt und unter gleichen Bedingungen geprüft. Es werden nur Eindringtiefen von 0,5 mm festgestellt.

COC(=O)Nc1nc2ccccc2[nH]1 [II, Benzimidazolcarbaminsäuremethylester]
solubility (Solubility in solvents; organic solvent or mixture, in Butanol): 600 µg/mL (≈ 3140 µM) | solubility (Solubility in solvents; water, in Wasser): 6 µg/mL (≈ 31.4 µM) | bewuchsfreie Eindringtiefe (holzverblauende Pilze): 0,5 mm
